In patent US10392422B2, “Macrocyclic broad spectrum antibiotics” (priority 2014, dated 2019):
Values after ≈ are worked out from the molar mass of the structure shown. Read-outs that look alike come from different tables or passages of the source.

Columns and labels:
Assay in all cases: MIC, broth micro-dilution technique (CLSI)
[1] = system: Escherichia coli MC4100 harboring the IMP4213; format: cell-based; conditions: 35° C., 22 hours; for MIC: Escherichia coli, 22 h; for MIC (μg/mL) E. coli: Table 2 modified protocol: serial 2-fold dilutions starting from 4 μg/mL
Summary of the method: (§1)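 CLSI broth microdilution in cation-adjusted Mueller Hinton broth with 0.002% v/v Tween-80. Compounds were serially 2-fold diluted over 10 concentrations from 64 μg/ml, or from 4 μg/mL in a modified protocol; inoculum at final OD600 0.0005, incubated 35° C for 22 hours.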

[2] = system: Methicillin Resistant Staphylococcus aureus strain USA 300 (NRS384); format: cell-based; conditions: for MIC: Staphylococcus aureus, 22 h, read-out: MIC (μg/mL) S. aureus
Summary of the method: as §1

MRSA COL (NRS100) = format: cell-based, Staphylococcus aureus; conditions: for MIC: Staphylococcus aureus, 22 h, read-out: MIC (μg/mL) (COL)
Summary of the method: as §1

[3] = read-out: MIC (μg/mL) E. coli, Table 1 protocol: serial 2-fold dilutions starting from 64 μg/ml
[4] = Table 1 protocol: serial 2-fold dilutions starting from 64 μg/ml, 35° C., 22 hours
[5] = read-out: MIC (μg/mL) E. coli, Table 2 modified protocol: serial 2-fold dilutions starting from 4 μg/mL
[6] = Table 2 modified protocol: serial 2-fold dilutions starting from 4 μg/mL, 35° C., 22 hours

Row | Structure (SMILES) | MIC [1, 3] | MIC [1, 5] | MIC [2, 6] | MIC (MRSA COL (NRS100); [6]) | MIC (μg/mL) E. coli [1] | MIC (μg/mL) S. aureus [2, 6] | MIC (μg/mL) (COL) (MRSA COL (NRS100); [6]) | other results
1 | CNC(=O)C(=O)CNC(=O)[C@@H]1Cc2ccc(O)c(c2)-c2cc(ccc2O)[C@H](N(C)C(=O)[C@H](CCCCN)NC(=O)c2ccc(-c3ccc(Cl)cc3)cc2)C(=O)N[C@@H](C)C(=O)N1 [Compound 238] | 64 µg/mL (≈ 74.9 µM) |  |  |  |  |  |  | MIC [2, 4]: 32 µg/mL (≈ 37.5 µM); MIC (MRSA COL (NRS100); [4]): 8 µg/mL (≈ 9.36 µM)
2 | C[C@@H]1NC(=O)[C@@H](N(C)C(=O)[C@H](CCCCN)NC(=O)c2ccc(-c3ccc(Cl)cc3)cc2)c2ccc(O)c(c2)-c2cc(ccc2O)C[C@@H](C(=O)NCC(=O)C(=O)O)NC1=O [Compound 239] | > 4 µg/mL |  |  |  |  |  |  | MIC [2, 4]: > 4 µg/mL; MIC (MRSA COL (NRS100); [4]): 4 µg/mL (≈ 4.75 µM)
3 | C[C@H](NC(=O)[C@@H]1Cc2ccc(O)c(c2)-c2cc(ccc2O)[C@H](N(C)C(=O)[C@H](CCCCN)NC(=O)c2ccc(-c3ccc(Cl)cc3)cc2)C(=O)N[C@@H](C)C(=O)N1)C(=O)CNC=O [Compound 240] | 48 µg/mL (≈ 55.3 µM) |  |  |  |  |  |  | MIC [2, 4]: 4 µg/mL (≈ 4.61 µM); MIC (MRSA COL (NRS100); [4]): 2 µg/mL (≈ 2.3 µM)
4 | C[C@H](NC(=O)[C@@H]1Cc2ccc(O)c(c2)-c2cc(ccc2O)[C@H](N(C)C(=O)[C@H](CCCCN)NC(=O)c2ccc(-c3ccc(Cl)cc3)cc2)C(=O)N[C@@H](C)C(=O)N1)C(=O)Cn1ccnn1 [Compound 241] | 16 µg/mL (≈ 17.9 µM) |  |  |  |  |  |  | MIC [2, 4]: 4 µg/mL (≈ 4.48 µM); MIC (MRSA COL (NRS100); [4]): 1.5 µg/mL (≈ 1.68 µM)
5 | C[C@@H]1NC(=O)[C@@H](N(C)C(=O)[C@H](CCCCN)NC(=O)c2ccc(-c3ccc(Cl)cc3)cc2)c2ccc(O)c(c2)-c2cc(ccc2O)C[C@@H](C(=O)N[C@@H](C)C(=O)C(=O)Nc2cn[nH]c2)NC1=O [Compound 242] |  | > 4 µg/mL | > 4 µg/mL | 4 µg/mL (≈ 4.35 µM) |  |  |  | 
6 | C[C@@H]1NC(=O)[C@@H](N(C)C(=O)[C@H](CCCCN)NC(=O)c2ccc(-c3ccc(Cl)cc3)cc2)c2ccc(O)c(c2)-c2cc(ccc2O)C[C@@H](C(=O)N[C@@H](C)C(=O)N(CCO)CC(N)=O)NC1=O [Compound 243] |  | > 4 µg/mL | > 4 µg/mL | > 4 µg/mL |  |  |  | 
7 | C[C@@H]1NC(=O)[C@@H](N(C)C(=O)[C@H](CCCCN)NC(=O)c2ccc(-c3ccc(Cl)cc3)cc2)c2ccc(O)c(c2)-c2cc(ccc2O)C[C@@H](C(=O)NCC(=O)c2nnn[nH]2)NC1=O [Compound 244] |  | > 4 µg/mL | > 4 µg/mL | 4 µg/mL (≈ 4.62 µM) |  |  |  | 
8 | C[C@@H]1NC(=O)[C@@H](N(C)C(=O)[C@H](CCCCN)NC(=O)c2ccc(-c3ccc(Cl)cc3)cc2)c2ccc(O)c(c2)-c2cc(ccc2O)C[C@@H](C(=O)NCC(=O)c2ncc[nH]2)NC1=O [Compound 245] |  | > 4 µg/mL | 4 µg/mL (≈ 4.63 µM) | 2 µg/mL (≈ 2.32 µM) |  |  |  | 
9 | CC(NC(=O)[C@@H]1Cc2ccc(O)c(c2)-c2cc(ccc2O)[C@H](N(C)C(=O)[C@H](CCCCN)NC(=O)c2ccc(-c3ccc(Cl)cc3)cc2)C(=O)N[C@@H](C)C(=O)N1)C(=O)Cn1cc(C(N)=O)nn1 (stereo partly drawn) [Compound 246] |  | > 4 µg/mL | 4 µg/mL (≈ 4.28 µM) | 3 µg/mL (≈ 3.21 µM) |  |  |  | 
10 | C[C@H](NC(=O)[C@@H]1Cc2ccc(O)c(c2)-c2cc(ccc2O)[C@H](N(C)C(=O)[C@H](CCCCN)NC(=O)c2ccc(-c3ccc(Cl)cc3)cc2)C(=O)N[C@@H](C)C(=O)N1)C(=O)CF [Compound 247] |  | > 4 µg/mL | 2 µg/mL (≈ 2.37 µM) | 1 µg/mL (≈ 1.19 µM) |  |  |  | 
11 | CCOS(=O)(=O)/C=C/[C@H](C)NC(=O)[C@@H]1Cc2ccc(O)c(c2)-c2cc(ccc2O)[C@H](N(C)C(=O)[C@H](CCCCN)NC(=O)c2ccc(-c3ccc(Cl)cc3)cc2)C(=O)N[C@@H](C)C(=O)N1 [Compound 248] | > 64 µg/mL |  |  |  |  |  |  | MIC [2]: 21 µg/mL (≈ 22.9 µM); MIC (MRSA COL (NRS100)): 4 µg/mL (≈ 4.36 µM)
12 | C[C@@H]1NC(=O)[C@@H](N(C)C(=O)[C@H](CCCCN)NC(=O)c2ccc(-c3ccc(Cl)cc3)cc2)c2ccc(O)c(c2)-c2cc(ccc2O)C[C@@H](C(=O)N[C@@H](C)/C=C/S(N)(=O)=O)NC1=O [Compound 249] | 48 µg/mL (≈ 54 µM) |  |  |  |  |  |  | MIC [2]: 32 µg/mL (≈ 36 µM); MIC (MRSA COL (NRS100)): 16 µg/mL (≈ 18 µM)
13 | C[C@@H]1NC(=O)[C@@H](N(C)C(=O)[C@H](CCCCN)NC(=O)c2ccc(-c3ccc(Cl)cc3)cc2)c2ccc(O)c(c2)-c2cc(ccc2O)C[C@@H](C(=O)N[C@@H](C)C(=O)c2ccccn2)NC1=O [Compound 250] | 64 µg/mL (≈ 72 µM) |  |  |  |  |  |  | MIC [2, 4]: 64 µg/mL (≈ 72 µM); MIC (MRSA COL (NRS100); [4]): 11 µg/mL (≈ 12.4 µM)
14 | COC(=O)/C=C/[C@H](C)NC(=O)[C@@H]1Cc2ccc(O)c(c2)-c2cc(ccc2O)[C@H](N(C)C(=O)[C@H](CCCCN)NC(=O)c2ccc(-c3ccc(Cl)cc3)cc2)C(=O)N[C@@H](C)C(=O)N1 [Compound 251] | > 64 µg/mL |  |  |  |  |  |  | MIC [2]: 64 µg/mL (≈ 73.8 µM); MIC (MRSA COL (NRS100)): 16 µg/mL (≈ 18.4 µM)
15 | C[C@@H]1NC(=O)[C@@H](N(C)C(=O)[C@H](CCCCN)NC(=O)c2ccc(-c3ccc(Cl)cc3)cc2)c2ccc(O)c(c2)-c2cc(ccc2O)C[C@@H](C(=O)NCC(=O)C2CO2)NC1=O (stereo partly drawn) [Compound 252] |  | > 4 µg/mL | > 4 µg/mL | > 4 µg/mL |  |  |  | 
16 | C[C@@H]1NC(=O)[C@@H](N(C)C(=O)[C@H](CCCCN)NC(=O)c2ccc(-c3ccc(Cl)cc3)cc2)c2ccc(O)c(c2)-c2cc(ccc2O)C[C@@H](C(=O)NCC(=O)CF)NC1=O [Compound 253] |  | > 4 µg/mL | > 4 µg/mL | 4 µg/mL (≈ 4.82 µM) |  |  |  | 
17 | CC(=O)OCC(=O)CNC(=O)[C@@H]1Cc2ccc(O)c(c2)-c2cc(ccc2O)[C@H](N(C)C(=O)[C@H](CCCCN)NC(=O)c2ccc(-c3ccc(Cl)cc3)cc2)C(=O)N[C@@H](C)C(=O)N1 [Compound 254] |  | > 4 µg/mL | 4 µg/mL (≈ 4.6 µM) | 2 µg/mL (≈ 2.3 µM) |  |  |  | 
18 | C[C@H](NC(=O)[C@@H]1Cc2ccc(O)c(c2)-c2cc(ccc2O)[C@H](N(C)C(=O)[C@H](CCCCN)NC(=O)c2ccc(-c3ccc(Cl)cc3)cc2)C(=O)N[C@@H](C)C(=O)N1)C(=O)CN=[N+]=[N-] [Compound 255] | > 64 µg/mL |  |  |  |  |  |  | MIC [2]: 12 µg/mL (≈ 13.9 µM); MIC (MRSA COL (NRS100)): 3 µg/mL (≈ 3.46 µM)
19 | CCCCCCCCCCS(=O)(=O)N[C@@H](CCCCN)C(=O)N(C)[C@@H]1C(=O)N[C@@H](C)C(=O)N[C@H](C(=O)N[C@@H](C)C(C)=O)Cc2ccc(OCCN)c(c2)-c2cc1ccc2OCCN.O=CO [Compound 256] |  |  |  |  | >4 µg/mL | 0.063 µg/mL | 0.016 µg/mL | 
20 | CCCCCCCCCCS(=O)(=O)N[C@@H](CCCCN)C(=O)N(C)[C@@H]1C(=O)N[C@@H](C)C(=O)N[C@H](C(=O)N[C@@H](C)C(=O)c2nnn[nH]2)Cc2ccc(OCCN)c(c2)-c2cc1ccc2OCCN.O=CO [Compound 258] |  |  |  |  | 4 µg/mL | 0.047 µg/mL | 0.012 µg/mL | 
21 | CCCCCCCCS(=O)(=O)N[C@@H](CO)C(=O)N(C)[C@@H]1C(=O)N[C@@H](C)C(=O)N[C@H](C(=O)N[C@@H](C)C(C)=O)Cc2ccc(OCCN)c(c2)-c2cc1ccc2OCCN.O=CO [Compound 259] |  |  |  |  | >4 µg/mL | 0.75 µg/mL | 0.38 µg/mL | 
22 | CCCCCCCCCC(=O)N[C@@H](CCSC)C(=O)N(C)[C@@H]1C(=O)N[C@@H](C)C(=O)N[C@H](C(=O)N[C@@H](C)C(C)=O)Cc2ccc(OCCN)c(c2)-c2cc1ccc2OCCN.O=CO [Compound 261] |  |  |  |  | >4 µg/mL | 1.5 µg/mL | 0.38 µg/mL | 
23 | CCCCCCCCCC(=O)N[C@@H](CC[S+](C)[O-])C(=O)N(C)[C@@H]1C(=O)N[C@@H](C)C(=O)N[C@H](C(=O)N[C@@H](C)C(C)=O)Cc2ccc(OCCN)c(c2)-c2cc1ccc2OCCN (stereo partly drawn) [Compound 262] |  |  |  |  | >4 µg/mL | >4 µg/mL | 2 µg/mL (≈ 2.3 µM) | 
24 | CCCCCCCCCC(=O)N[C@@H](CO)C(=O)N(C)[C@@H]1C(=O)N[C@@H](C)C(=O)N[C@H](C(=O)N[C@@H](C)C(C)=O)Cc2ccc(OCCN)c(c2)-c2cc1ccc2OCCN.O=CO [Compound 264] |  |  |  |  | >4 µg/mL | 2 µg/mL | 0.75 µg/mL | 
25 | CCCCCCCCCC(=O)N[C@@H](CO)C(=O)N(C)[C@@H]1C(=O)N[C@@H](C)C(=O)N[C@H](C(=O)N[C@@H](C)C(=O)c2nnn[nH]2)Cc2ccc(OCCN)c(c2)-c2cc1ccc2OCCN.O=CO [Compound 265] |  |  |  |  | 4 µg/mL | 1 µg/mL | 0.25 µg/mL | 
26 | CCCCCCCCCC(=O)N[C@@H](CC(N)=O)C(=O)N(C)[C@@H]1C(=O)N[C@@H](C)C(=O)N[C@H](C(=O)N[C@@H](C)C(C)=O)Cc2ccc(OCCN)c(c2)-c2cc1ccc2OCCN.O=CO [Compound 266] |  |  |  |  | >4 µg/mL | 4 µg/mL | 1.5 µg/mL | 
27 | CCCCCCCCCC(=O)NCC(=O)N(C)[C@@H]1C(=O)N[C@@H](C)C(=O)N[C@H](C(=O)N[C@@H](C)C(C)=O)Cc2ccc(OCCN)c(c2)-c2cc1ccc2OCCN.O=CO [Compound 267] |  |  |  |  | >4 µg/mL | 1.5 µg/mL | 0.5 µg/mL | 
28 | CCCCCCCCCCNCCC(=O)N(C)[C@@H]1C(=O)N[C@@H](C)C(=O)N[C@H](C(=O)N[C@@H](C)C(C)=O)Cc2ccc(OCCN)c(c2)-c2cc1ccc2OCCN.O=CO [Compound 268] |  |  |  |  | 2.5 µg/mL | 2.1 µg/mL | 1 µg/mL | 
